Columns and labels:
blackgrass = assay: Test B pre/postemergence blackgrass; type: in vivo, Alopecurus myosuroides
Procedure, shortened: (§1)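 Test chemicals in a non-phytotoxic solvent mixture with surfactant were sprayed preemergence onto planted seeds and postemergence onto plants 2 to 18 cm tall (1- to 4-leaf stage). After twelve to sixteen days in a greenhouse, injury was visually rated against untreated controls from 0 (no effect) to 10 (complete control).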

smallflower flatsedge = assay: Test B flood test smallflower flatsedge; type: in vivo, Cyperus difformis; details: for S. Flatsedge plant response rating: Postemergence section (flood test species)
Procedure, shortened: (§2)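 Plants were grown to the 2-leaf stage before treatment with test chemical, then held in a greenhouse for twelve to sixteen days. Injury was visually rated against untreated controls on a 0–10 scale, where 0 is no effect and 10 is complete control.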

rape = assay: Test B pre/postemergence rape; type: in vivo, Brassica napus
Procedure, shortened: as §1

giant foxtail = assay: Test B pre/postemergence giant foxtail; type: in vivo, Setaria faberii
Procedure, shortened: as §1

soybean = assay: Test B pre/postemergence soybean; type: in vivo, Glycine max
Procedure, shortened: as §1

rice = assay: Test B flood test rice; type: in vivo, Oryza sativa; details: for Rice plant response rating: Postemergence section (flood test species)
Procedure, shortened: as §2

velvetleaf = assay: Test B pre/postemergence velvetleaf; type: in vivo, Abutilon theophrasti
Procedure, shortened: as §1

cocklebur = assay: Test B pre/postemergence cocklebur; type: in vivo, Xanthium strumarium
Procedure, shortened: as §1

sugar beet = assay: Test B pre/postemergence sugar beet; type: in vivo, Beta vulgaris
Procedure, shortened: as §1

wild oat = assay: Test B pre/postemergence wild oat; type: in vivo, Avena fatua
Procedure, shortened: as §1

morningglory = assay: Test B pre/postemergence morningglory; type: in vivo, Ipomoea hederacea
Procedure, shortened: as §1

purple nutsedge = assay: Test B pre/postemergence purple nutsedge; type: in vivo, Cyperus rotundus
Procedure, shortened: as §1

corn = assay: Test B pre/postemergence corn; type: in vivo, Zea mays
Procedure, shortened: as §1

crabgrass = assay: Test B pre/postemergence crabgrass; type: in vivo, Digitaria sanguinalis
Procedure, shortened: as §1

surinam grass = assay: Test B pre/postemergence surinam grass; type: in vivo, Brachiaria decumbens
Procedure, shortened: as §1

wheat = assay: Test B pre/postemergence wheat; type: in vivo, Triticum aestivum
Procedure, shortened: as §1

duck salad = assay: Test B flood test duck salad; type: in vivo, Heteranthera limosa
Procedure, shortened: as §2

pigweed = assay: Test B pre/postemergence pigweed; type: in vivo, Amaranthus retroflexus
Procedure, shortened: as §1

bamyardgrass = assay: Test B flood test barnyardgrass; type: in vivo, Echinochloa crus-galli
Procedure, shortened: as §2

[1] = Postemergence, Rate 250 g/ha, scale 0 to 10, 0 is no effect, 10 is complete control
[2] = Postemergence, Rate 500 g/ha, scale of 0 to 10 where 0 is no effect and 10 is complete control
[3] = Preemergence, Rate 62 g/ha, scale 0 to 10 (0 no effect, 10 complete control)
[4] = Preemergence, Rate 125 g/ha, scale of 0 to 10 where 0 is no effect and 10 is complete control
[5] = Preemergence, Rate 250 g/ha, scale of 0 to 10 where 0 is no effect and 10 is complete control
[6] = Preemergence, Rate 500 g/ha, scale 0 to 10, 0 is no effect, 10 is complete control
[7] = Rate 62 g/ha, Postemergence, scale of 0 to 10 where 0 is no effect and 10 is complete control
[8] = Rate 125 g/ha, Postemergence, scale 0 to 10, 0 is no effect, 10 is complete control
[9] = Rate 500 g/ha, scale of 0 to 10 where 0 is no effect and 10 is complete control
[10] = Rate 125 g/ha, scale 0 to 10, 0 is no effect, 10 is complete control
[11] = flood test species, listed under Postemergence, Rate 250 g/ha, scale 0 to 10, 0 is no effect, 10 is complete control
[12] = Preemergence, Rate 250 g/ha, scale 0 to 10, 0 is no effect, 10 is complete control
[13] = Postemergence section (flood test species), Rate 500 g/ha, scale of 0 to 10 where 0 is no effect and 10 is complete control
[14] = Rate 62 g/ha, Postemergence (flood test species), scale of 0 to 10 where 0 is no effect and 10 is complete control
[15] = Rate 125 g/ha, Postemergence section (flood test species), scale 0 to 10, 0 is no effect, 10 is complete control

## CC(C)N(C(=O)n1oc(=O)n(CCl)c1=O)c1ccccc1 [Compound 423]
blackgrass; [1]
  Plant response rating, Blackgrass: 0
blackgrass; [2]
  Blackgrass plant response rating: 2
blackgrass; [3]
  Plant response rating, Blackgrass: 0
blackgrass; [4]
  Plant response rating, Blackgrass: 0
blackgrass; [5]
  Blackgrass plant response rating: 0
blackgrass; [6]
  Blackgrass plant response rating: 0
blackgrass; [7]
  Blackgrass plant response rating: 0
blackgrass; [8]
  Blackgrass plant response rating: 0
Smallflower flatsedge; [9]
  S. Flatsedge plant response rating: 0
Smallflower flatsedge; [10]
  S. Flatsedge plant response rating: 0
Smallflower flatsedge; [11]
  Plant response rating, S. Flatsedge: 0
rape; [1]
  Plant response rating, Rape: 0
rape; [2]
  Rape plant response rating: 0
rape; [3]
  Plant response rating, Rape: 0
rape; [4]
  Plant response rating, Rape: 0
rape; [12]
  Rape plant response rating: 0
rape; [6]
  Rape plant response rating: 0
rape; [8]
  Rape plant response rating: 0
Giant foxtail; [1]
  Plant response rating, Giant foxtail: 0
Giant foxtail; [2]
  Giant foxtail plant response rating: 2
Giant foxtail; [3]
  Plant response rating, Giant foxtail: 0
Giant foxtail; [4]
  Plant response rating, Giant foxtail: 0
Giant foxtail; [12]
  Giant foxtail plant response rating: 3
Giant foxtail; [6]
  Giant foxtail plant response rating: 4
Giant foxtail; [7]
  Giant foxtail plant response rating: 0
Giant foxtail; [8]
  Giant foxtail plant response rating: 0
soybean; [1]
  Plant response rating, Soybean: 2
soybean; [2]
  Soybean plant response rating: 2
soybean; [3]
  Plant response rating, Soybean: 0
soybean; [4]
  Plant response rating, Soybean: 0
soybean; [12]
  Soybean plant response rating: 0
soybean; [6]
  Soybean plant response rating: 0
soybean; [8]
  Soybean plant response rating: 2
rice; [9]
  Rice plant response rating: 0
rice; [10]
  Rice plant response rating: 0
rice; [11]
  Plant response rating, Rice: 0
velvetleaf; [1]
  Plant response rating, Velvetleaf: 0
velvetleaf; [2]
  Velvetleaf plant response rating: 0
velvetleaf; [3]
  Plant response rating, Velvetleaf: 0
velvetleaf; [4]
  Plant response rating, Velvetleaf: 0
velvetleaf; [12]
  Velvetleaf plant response rating: 0
velvetleaf; [6]
  Velvetleaf plant response rating: 0
velvetleaf; [8]
  Velvetleaf plant response rating: 0
cocklebur; [1]
  Plant response rating, Cocklebur: 0
cocklebur; [2]
  Cocklebur plant response rating: 0
cocklebur; [3]
  Plant response rating, Cocklebur: 0
cocklebur; [4]
  Plant response rating, Cocklebur: 0
cocklebur; [12]
  Cocklebur plant response rating: 0
cocklebur; [6]
  Cocklebur plant response rating: 0
cocklebur; [7]
  Cocklebur plant response rating: 0
cocklebur; [8]
  Cocklebur plant response rating: 0
Sugar beet; [1]
  Plant response rating, Sugarbeets: 0
Sugar beet; [2]
  Sugarbeets plant response rating: 0
Sugar beet; [3]
  Plant response rating, Sugarbeets: 0
Sugar beet; [4]
  Plant response rating, Sugarbeets: 0
Sugar beet; [12]
  Sugarbeets plant response rating: 0
Sugar beet; [6]
  Sugarbeets plant response rating: 0
Sugar beet; [8]
  Sugarbeets plant response rating: 0
Wild oat; [2]
  Wild oats plant response rating: 0
Wild oat; [3]
  Plant response rating, Wild oats: 0
Wild oat; [4]
  Plant response rating, Wild oats: 0
Wild oat; [12]
  Wild oats plant response rating: 0
Wild oat; [6]
  Wild oats plant response rating: 0
Wild oat; [8]
  Wild oats plant response rating: 0
morningglory; [2]
  Morningglory plant response rating: 8
morningglory; [3]
  Plant response rating, Morningglory: 0
morningglory; [4]
  Plant response rating, Morningglory: 0
morningglory; [12]
  Morningglory plant response rating: 0
morningglory; [6]
  Morningglory plant response rating: 0
morningglory; [8]
  Morningglory plant response rating: 2
Purple nutsedge; [1]
  Plant response rating, Nutsedge: 0
Purple nutsedge; [2]
  Nutsedge plant response rating: 0
Purple nutsedge; [3]
  Plant response rating, Nutsedge: 0
Purple nutsedge; [4]
  Plant response rating, Nutsedge: 0
Purple nutsedge; [12]
  Nutsedge plant response rating: 0
Purple nutsedge; [6]
  Nutsedge plant response rating: 0
Purple nutsedge; [8]
  Nutsedge plant response rating: 0
corn; [1]
  Plant response rating, Corn: 0
corn; [2]
  Corn plant response rating: 0
corn; [3]
  Plant response rating, Corn: 0
corn; [4]
  Plant response rating, Corn: 0
corn; [12]
  Corn plant response rating: 0
corn; [6]
  Corn plant response rating: 0
corn; [7]
  Corn plant response rating: 0
corn; [8]
  Corn plant response rating: 0
crabgrass; [1]
  Plant response rating, Crabgrass: 0
crabgrass; [2]
  Crabgrass plant response rating: 1
crabgrass; [3]
  Plant response rating, Crabgrass: 0
crabgrass; [4]
  Plant response rating, Crabgrass: 0
crabgrass; [6]
  Crabgrass plant response rating: 2
crabgrass; [7]
  Crabgrass plant response rating: 0
crabgrass; [8]
  Crabgrass plant response rating: 0
Surinam grass; [1]
  Plant response rating, B. signalgrass: 0
Surinam grass; [2]
  B. signalgrass plant response rating: 0
Surinam grass; [3]
  Plant response rating, B. signalgrass: 0
Surinam grass; [4]
  Plant response rating, B. signalgrass: 0
Surinam grass; [5]
  B. signalgrass plant response rating: 0
Surinam grass; Preemergence, Rate 500 g/ha, scale of 0 to 10 where 0 is no effect and 10 is complete control
  B. signalgrass plant response rating: 0
Surinam grass; [7]
  B. signalgrass plant response rating: 0
Surinam grass; [8]
  B. signalgrass plant response rating: 0
wheat; [2]
  Wheat plant response rating: 0
wheat; [3]
  Plant response rating, Wheat: 0
wheat; [4]
  Plant response rating, Wheat: 0
wheat; [12]
  Wheat plant response rating: 0
wheat; [6]
  Wheat plant response rating: 0
wheat; [8]
  Wheat plant response rating: 0
Duck salad; [13]
  Ducksalad plant response rating: 0
Duck salad; [14]
  Ducksalad plant response rating: 0
Duck salad; [15]
  Ducksalad plant response rating: 0
Duck salad; [11]
  Plant response rating, Ducksalad: 0
pigweed; [1]
  Plant response rating, Redroot pigweed: 0
pigweed; [2]
  Redroot pigweed plant response rating: 0
pigweed; [3]
  Plant response rating, Redroot pigweed: 0
pigweed; [4]
  Plant response rating, Redroot pigweed: 0
pigweed; [12]
  Redroot pigweed plant response rating: 0
pigweed; [6]
  Redroot pigweed plant response rating: 0
pigweed; [8]
  Redroot pigweed plant response rating: 0
bamyardgrass; [13]
  Barnyardgrass plant response rating: 0
bamyardgrass; [14]
  Barnyardgrass plant response rating: 0
bamyardgrass; [15]
  Barnyardgrass plant response rating: 0
bamyardgrass; [11]
  Plant response rating, Barnyardgrass: 0
